Results: article PMC10194981, “Chemosensory protein regulates the behavioural response of Frankliniella intonsa and Frankliniella occidentalis to tomato zonate spot virus–Infected pepper (Capsicum annuum)” (PLOS Pathogens, 2023)

What was measured:
FintCSP1-Val132Ala = FintCSP1-Val132Ala (Frankliniella intonsa, UniProt A0A891LVF4, V132A); experiment: Fluorescence (1-NPN) binding and competitive binding assay, FintCSP1 mutant (negative control residue)
Experimental: (§1) The binding affinity of FintCSP1 and FoccCSP to the fluorescent probe N-phenyl-1-naphthylamine (1-NPN) was tested using a Spectramax M2 fluorescence spectrometer (Molecular Devices, USA) as reported previously. Volatile compounds and 1-NPN were first dissolved to a concentration of 1 mM in HPLC-grade methanol and dissolved to their indicated final concentration (2–20 μM) to titrate 2 μM protein solutions resuspended in 50 mM Tris-HCl (pH 7.4). The 1-NPN/FintCSP1 or 1-NPN/FoccCSP mixture was excited at 280 nm, and the emission spectra were recorded at 415 nm. The binding constants (Kd) of FintCSP1 or FoccCSP to 1-NPN were calculated by Scatchard analysis using Prism 5 software (GraphPad, La Jolla, CA, USA). Assuming a protein activity of 100% and that the volatile compound binds to the protein in a 1:1 ratio at saturation, the dissociation constants (Ki) of FintCSP1 or FoccCSP for each ligand were calculated according to the IC50 (the concentration when the ligand replaces 50% of the probe) value of the volatile compounds. The Ki values were calculated according to the following equation: Ki = [IC50]/(1 + [1-NPN]/K1-NPN), where [1-NPN] is the free concentration of 1-NPN, and K1-NPN is the Kd of the 1-NPN/FintCSP1 or 1-NPN/FoccCSP.
(§2) To verify the key amino acids of FintCSP1 and FoccCSP that bind to cis-3-hexenal, six amino acid residues of FintCSP1 were mutated (Lys26Ala, Phe27Ala, Thr28Ala, Glu67Ala, Ser84Ala, and the negative control residue Val132Ala) and nine amino acid residues of FoccCSP were mutated (Lys26Ala, Phe27Ala, Thr28Ala, Thr29Ala, Tyr31Ala, Asp64Ala, Glu67Ala, Gln87Ala, and the negative control residue Val132Ala) with the Fast Mutagenesis System Kit (Transgen Biotech, Beijing, China) using the pET-30a/FintCSP1 and pET-30a/FoccCSP plasmid DNA as template, respectively. […] After validation by sequencing, each recombinant variant protein was produced and purified as described above, and their binding affinity to cis-3-hexenal was measured as described above.

M. sexta larvae = test system: M. sexta larvae; parameters: method as in PMID 25261073; conditions: cited from earlier work
[1] = molecular target: recombinant wild-type FoccCSP (Frankliniella occidentalis, UniProt G4Y3X1); experiment: Fluorescence (1-NPN) binding and competitive binding assay, wild-type FoccCSP; conditions: wild-type FoccCSP, displacement of 1-NPN, both 2 μM
recombinant wild-type FoccCSP, sequence (G4Y3X1 entry or part of it): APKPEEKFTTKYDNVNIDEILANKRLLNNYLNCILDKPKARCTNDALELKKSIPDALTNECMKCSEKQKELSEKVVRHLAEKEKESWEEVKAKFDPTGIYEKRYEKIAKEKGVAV
Experimental: FintCSP1 and FoccCSP DNA were released from pEASY-T1/FintCSP1 and pEASY-T1/FoccCSP, respectively, by restriction digestion with BamHI and XhoI and cloned into the pET-30a vector (Invitrogen). The resulting construct was transformed into Transetta (DE3) Escherichia coli competent cells (Transgen). The production of recombinant FintCSP1 and FoccCSP was induced by addition of isopropyl-β-D-1-thiogalactopyranoside (IPTG, 0.2 mM) at 15°C and purified by Ni ion affinity chromatography (Sangon Biotech, Shanghai, China). The target protein was verified by 15% SDS-PAGE, and its concentration was determined with a BCA protein assay kit (Thermo Scientific, Rockford, IL, USA). The recombinant purified protein was stored at −20°C until use.
as §1

F. occidentalis antennae = experiment: Electroantennogram (EAG) assay; parameters: species or system Frankliniella occidentalis; conditions: dsFoccCSP-injected compared to dsEGFP-injected F. occidentalis
Experimental: The FintCSP1, FintCSP2, FintOBP, FintOR, FoccCSP, and enhanced green fluorescent protein (EGFP) coding sequences were obtained from GenBank under accession numbers MT199111, MT211602, OK067245, MT211603, AEP27186.1, and U55761.1, respectively. Primers were designed using Primer Premier 5.0, and the T7 promoter sequence (5′-[…]-3′) was added to the 5′ end of each primer (S1 Table). DNA fragments containing T7 promoter sequences were amplified by PCR using pEASY-T1/target gene or pUC-EGFP (preserved in the laboratory) plasmid DNA as template. Then, a double-stranded RNA (dsRNA) was produced from each target gene using the HiScribe T7 Quick High Yield RNA Synthesis Kit (New England Biolabs) according to the manufacturer’s instructions. […]
At 24 h after dsRNA injection, the electrophysiological responses of F. intonsa antennae to six volatile components (i.e., m-cymene, cis-3-hexenal, (+)-2-carene, trans-2-hexenal, α-phellandrene, and α-humulene) or F. occidentalis antennae to cis-3-hexenal were recorded using EAG. […] The EAG values to volatile compounds were calculated using the following equation: absolute value of EAG reaction = reaction value of the tested sample—average value of two control measurements.

FintCSP1-Ser84Ala = FintCSP1-Ser84Ala (Frankliniella intonsa, UniProt A0A891LVF4, S84A); experiment: Fluorescence (1-NPN) binding and competitive binding assay, FintCSP1 mutant
FintCSP1-Ser84Ala, sequence (A0A891LVF4 entry or part of it S84A): as the sequence (G4Y3X1 entry or part of it) above, with E5D, V15I, N44A, M62A, S65A, A80V, E81D, K82H, E85T, K109Q counted along it
Experimental: as §1, §2

FintCSP1-Val132Ala, sequence (A0A891LVF4 entry or part of it V132A): as the sequence (G4Y3X1 entry or part of it) above, with E5D, V15I, N44A, M62A, A80V, E81D, K82H, E85T, K109Q, V113A counted along it

## CC/C=C\CC=O [cis-3-hexenal]
FintCSP1-Val132Ala
  IC50: 39.24 ± 0.36 µM
  Ki: 32.18 ± 0.29 µM
M. sexta larvae
  effect on M. sexta larvae (in words): feeding stimulant
[1]; 50 mM Tris-HCl pH 7.4
  IC50: 28.8 ± 0.45 µM
[1]; pH 7.4
  Ki: 23.4 ± 0.36 µM
F. occidentalis antennae
  EAG response of FoccCSP-silenced antennae (in words): significantly lower response
FintCSP1-Ser84Ala
  IC50: 41.3 ± 3.96 µM
  Ki: 29.7 ± 2.84 µM
